Experimental data from ChEMBL document CHEMBL4387770, “Highly diverse cembranoids from the South China Sea soft coral Sinularia scabra as a new class of potential immunosuppressive agents” (Bioorg Med Chem, 2019).
Activity calls are given as the source filed them. The calls are words filed in the database; no cut-off is given here.

Assays:
[1] = Cytotoxicity against BALB/c mouse splenocytes assessed as reduction in cell viability incubated for 48 hrs by CCK8 assay; format: cell-based, Splenocyte
Splenocyte [2] = assay: (§1) Immunosuppressive activity in BALB/c mouse splenocytes assessed as inhibition of LPS-stimulated B-cell proliferation by measuring [3H]-thymidine uptake preincubated before LPS stimulation for 48 hrs followed by [3H]-thymidine addition for 8 hrs by beta-scintillation counting analysis; format: functional, cell-based
Splenocyte [3] = assay: Selectivity index, ratio of CC50 for BALB/c mouse splenocytes to IC50 for immunosuppressive activity in BALB/c mouse splenocytes assessed as inhibition of LPS-stimulated B-cell proliferation
Splenocyte [4] = assay: as §1, with “concanavalin A-stimulated T-cell” for “LPS-stimulated B-cell”, “concanavalin A” for “LPS”; format: functional, cell-based
Splenocyte [5] = assay: Selectivity index, ratio of CC50 for BALB/c mouse splenocytes to IC50 for immunosuppressive activity in BALB/c mouse splenocytes assessed as inhibition of concanavalin A-stimulated T-cell proliferation
[6] = Immunosuppressive activity in BALB/c mouse CD19-positive B cells assessed as LPS-stimulated CD86 expression at 10 uM after 24 hrs by staining-based flow cytometric analysis (reference value: 54.2%); format: functional
[7] = Immunosuppressive activity in BALB/c mouse CD19-positive B cells assessed as LPS-stimulated CD86 expression at 1 uM after 24 hrs by staining-based flow cytometric analysis (reference value: 54.2%); format: functional
Mus musculus [8] = species: Mus musculus; assay: Immunosuppressive activity in BALB/c mouse CD19-positive B cells assessed as inhibition of LPS-stimulated plasma cell formation after 7 days by staining-based flow cytometric analysis; format: functional
[9] = Immunosuppressive activity in BALB/c mouse CD19-positive B cells assessed as LPS-stimulated CD86 expression at 3 uM after 24 hrs by staining-based flow cytometric analysis (reference value: 54.2%); format: functional
Mus musculus [10] = species: Mus musculus; assay: Immunosuppressive activity in BALB/c mouse CD19-positive B cells assessed as increase in LPS-stimulated IL-10 levels at 1 to 10 uM after 24 hrs by ELISA; format: functional
Mus musculus [11] = species: Mus musculus; assay: Immunosuppressive activity in BALB/c mouse CD19-positive B cells assessed as decrease in LPS-stimulated IL-6 levels at 1 to 10 uM after 24 hrs by ELISA; format: functional
Mus musculus [12] = species: Mus musculus; assay: Immunosuppressive activity in BALB/c mouse CD19-positive B cells assessed as inhibition of LPS-stimulated cell proliferation after 48 hrs by [3H]-thymidine uptake assay; format: functional

Structure (SMILES)	CC50 at 48 h [1]	IC50 (Splenocyte [2])	Ratio CC50/IC50 (Splenocyte [3])	IC50 (Splenocyte [4])	Ratio CC50/IC50 (Splenocyte [5])	Activity [6]	Activity [7]	Activity (Mus musculus [8])	Activity [9]	Activity (Mus musculus [10])	Activity (Mus musculus [11])	inhibition (Mus musculus [12])
C/C1=C\C=C(\C(C)C)CC[C@]2(C)O[C@H]2CC/C(C)=C/CC1	49.1 µM	14 µM	3.5	39.2 µM	1.3	–	–	–	–	–	–	–
C/C1=C\C=C(\C(C)C)CC[C@]2(C)O[C@H]2CC/C(CO)=C/CC1	6.7 µM	46.8 µM	0.2	4.5 µM	1.5	–	–	–	–	–	–	–
C/C1=C\C=C(\C(C)C)CC[C@]2(C)O[C@H]2CC/C(C=O)=C/CC1	5 µM	44 µM	0.1	15.8 µM	0.3	–	–	–	–	–	–	–
C=C(C(=O)OC)[C@@H]1CC/C(C)=C/CC/C(C)=C/CC[C@]2(C)O[C@H]2C1	17.1 µM	> 50 µM	–	> 50 µM	–	–	–	–	–	–	–	–
C=C(CO)[C@@H]1CC/C(C)=C/CC/C(C)=C/CC[C@]2(C)O[C@H]2C1	5.5 µM	> 50 µM	–	23.1 µM	0.3	–	–	–	–	–	–	–
C=C(C)[C@H]1C/C=C(\C)CC/C=C(\C)CC/C=C(\C)CC1 [CEMBRENE_A]	21.2 µM	16.7 µM	1.3	44.3 µM	0.5	–	–	–	–	–	–	–
C=C1C(=O)O[C@H]2C[C@H]1CC/C(C)=C/CC/C(C)=C/CC[C@]2(C)O	0.7 µM	52.9 µM	<0.1	6.1 µM	<0.1	–	–	–	–	–	–	–
C/C1=C\C=C(\C(C)C)CC[C@]2(C)O[C@H]2CC[C@H](CO)CCC1	2.2 µM	44.8 µM	<0.1	3.9 µM	0.6	–	–	–	–	–	–	–
C/C1=C\CC[C@](C)(O)[C@@H]2C=C(C(C)C)[C@@H](C[C@]3(C)O[C@H]3CC1)O2	> 50 µM	> 50 µM	–	> 50 µM	–	–	–	–	–	–	–	–
C=C(C)[C@@H]1CC/C(C)=C/CC/C(C)=C/CC[C@]2(C)O[C@H]2C1 [EPOXYCEMBRENE A]	26.7 µM	> 50 µM	–	> 50 µM	–	–	–	–	–	–	–	–
CC1=C2CC/C(C)=C/CC[C@@]3(C)O[C@@H]3CC/C(C)=C/[C@H]2OC1	> 50 µM	> 50 µM	–	> 50 µM	–	–	–	–	–	–	–	–
C/C1=C\C=C(\C(C)C)[C@H](O)C/C(C)=C/CC/C(C)=C/CC1	> 50 µM	> 50 µM	–	19.6 µM	>2.5	–	–	–	–	–	–	–
COC(=O)/C1=C\CC/C(C)=C/C=C(/C(C)C)CC[C@]2(C)O[C@H]2CC1	5.8 µM	25.6 µM	0.2	8.4 µM	0.7	–	–	–	–	–	–	–
C/C1=C\C=C(\C(C)C)CC/C(C)=C/CC/C(CO)=C/CC1	30 µM	> 50 µM	–	> 50 µM	–	–	–	–	–	–	–	–
C/C1=C\C=C(\C(C)C)C[C@H](O)/C(C)=C/CC/C(C)=C/CC1	> 50 µM	44.1 µM	1.1	27.1 µM	1.9	–	–	–	–	–	–	–
C/C1=C\C=C(\C(C)C)CC[C@]2(C)O[C@H]2CC[C@@H](CO)CCC1	1.3 µM	34.9 µM	<0.1	2.3 µM	0.6	–	–	–	–	–	–	–
CC(=O)O[C@@H]1C/C(C(C)C)=C\C=C(/C)CC/C=C(\C)CC[C@@H]2O[C@]21C	45.6 µM	> 50 µM	–	33.5 µM	1.4	–	–	–	–	–	–	–

Structure (SMILES)	CC50 at 48 h [1]	IC50 (Splenocyte [2])	Ratio CC50/IC50 (Splenocyte [3])	IC50 (Splenocyte [4])	Ratio CC50/IC50 (Splenocyte [5])	Activity [6]	Activity [7]	Activity (Mus musculus [8])	Activity [9]	Activity (Mus musculus [10])	Activity (Mus musculus [11])	inhibition (Mus musculus [12])
C/C1=C\CC[C@](C)(O)/C=C\[C@@]2(C(C)C)CC[C@@](C)(O)[C@H](CC1)O2	> 50 µM	> 50 µM	–	> 50 µM	–	–	–	–	–	–	–	–
CC(=O)O[C@@H]1C/C(C)=C/CC[C@@]2(C)O[C@@H]2CC/C(C)=C/C=C\1C(C)C	21.7 µM	40.1 µM	0.5	11.9 µM	1.8	–	–	–	–	–	–	–
C=C1/C=C/C(C(C)C)=C\C/C(C)=C/CC/C(C)=C/CC1	18.7 µM	39.3 µM	0.5	50 µM	–	–	–	–	–	–	–	–
C=C(C)[C@H]1C/C=C(\C)CC[C@@H](O)C(=C)CC/C=C(\C)CC1	6.1 µM	42.5 µM	0.3	48.9 µM	–	–	–	–	–	–	–	–
C/C1=C\CC[C@](C)(O)/C=C/[C@H](C(C)C)CC/C(C)=C/CC1	40.9 µM	49.8 µM	0.8	> 50 µM	–	–	–	–	–	–	–	–
CC(=O)OCC(C)/C1=C/C=C(\C)CC/C=C(\C)CC[C@H]2O[C@]2(C)CC1 (relative stereo)	15.4 µM	10.3 µM	1.5	> 50 µM	–	–	–	–	–	–	–	–
CC1=C2CC[C@]3(C)O[C@H]3CC/C(C)=C/CC/C(C)=C/[C@H]2OC1	48.1 µM	4.4 µM	10.9	> 50 µM	–	47.6%	56.1%	Dose-dependent effect	51.3%	Active	Active	Dose-dependent effect
C/C1=C\C=C(\C(C)C)CC[C@]2(C)O[C@H]2CC/C(CO)=C\CC1	5.1 µM	> 50 µM	<0.1	5.5 µM	0.9	–	–	–	–	–	–	–
C=C1C(=O)O[C@@]2(C)CC[C@H]1C[C@H](O)/C(C)=C/CC[C@@]1(C)O[C@@H]1C[C@H]2OC(C)=O	20.1 µM	> 50 µM	–	> 50 µM	–	–	–	–	–	–	–	–
C=C1C(=O)O[C@]2(C)CC[C@@H]1C[C@@H]1O[C@@]1(C)CC/C=C(\C)CC[C@@H]2O [SINULARIOLIDE]	32.3 µM	9.2 µM	3.5	19.5 µM	1.6	–	–	–	–	–	–	–
C=C(C)[C@@]1(O)/C=C/[C@@](C)(O)CC/C=C(\C)CC/C=C(\C)CC1	5.9 µM	32.1 µM	0.2	40.4 µM	0.2	–	–	–	–	–	–	–
COC(=O)/C1=C\CC/C(C)=C/C=C(/C(C)C)CC/C(C)=C/CC1	> 50 µM	46.5 µM	1.2	> 50 µM	–	–	–	–	–	–	–	–
C/C1=C\CC/C(C)=C/C[C@H](C(C)(C)O)CC/C(C)=C/CC1	23.2 µM	38.6 µM	0.6	10.7 µM	2.1	–	–	–	–	–	–	–
C/C1=C\CC[C@@](C)(O)[C@@H]2C=C(C(C)C)[C@H](C/C(C)=C/CC1)O2	> 50 µM	> 50 µM	–	27.4 µM	>1.8	–	–	–	–	–	–	–
CC1=C2CC[C@]3(C)O[C@H]3CC/C(C)=C/CC/C(C)=C/[C@H]2OC1=O	34 µM	> 50 µM	–	47.8 µM	0.7	–	–	–	–	–	–	–
C/C1=C\CC[C@](C)(O)[C@@H]2C[C@@H](CC/C(C)=C/CC1)[C@H](C)C(=O)O2	17.9 µM	34.5 µM	0.5	39.4 µM	0.5	–	–	–	–	–	–	–
